Data published in ChEMBL document CHEMBL1938257, “Synthesis of monomeric derivatives to probe memoquin's bivalent interactions” (J Med Chem, 2011).
Calls of active or inactive are those of the source. The rule behind the calls is not given here.

Columns and labels:
[1] = target: T1, Acetylcholinesterase (Homo sapiens, UniProt P22303); experiment: Inhibition of human recombinant AChE using acetylthiocholine iodide as substrate after 20 mins preincubation by Ellman method
[2] = target: Cholinesterase (Homo sapiens, UniProt P06276); experiment: Inhibition of human recombinant BuChE using butyrylthiocholine iodide as substrate after 20 mins preincubation by Ellman method
[3] = Inhibition of amyloid beta (1 to 42) self-aggregation assessed as fibril formation at 10 uM after 24 hrs by thioflavin T-based fluorometric assay
[4] = target: T2, Beta-secretase 1 (Homo sapiens, UniProt P56817); experiment: Inhibition of recombinant BACE1 expressed in baculovirus system using panvera peptide as substrate at 3 uM after 60 mins by spectrofluorometric analysis
[5] = Neurotoxicity in chicken primary telencephalon neuron expressing APP assessed as reduction in neuronal viability at 50 uM after 24 hrs by MTT assay; set-up: species or system Gallus gallus
[6] = target: T2, Beta-secretase 1; experiment: Inhibition of recombinant BACE1 expressed in baculovirus system using M-2420 as substrate preincubated for 1 hr before substrate addition measured after 15 mins by spectrofluorometric analysis
[7] = Neurotoxicity in chicken primary telencephalon neuron expressing APP assessed as reduction in neuronal viability at 25 uM after 24 hrs by MTT assay; set-up: species or system Gallus gallus
[8] = target: T1, Acetylcholinesterase; experiment: Inhibition of human recombinant AChE-induced amyloid beta (1-40) aggregation assessed as fibril formation after 24 hrs by thioflavin T-based fluorometric assay
[9] = Neurotoxicity in chicken primary telencephalon neuron expressing APP assessed as reduction in neuronal viability at 0.01 to 50 uM after 24 hrs by MTT assay; set-up: species or system Gallus gallus
[10] = target: T2, Beta-secretase 1; experiment: Inhibition of recombinant BACE1 expressed in baculovirus system using panvera peptide as substrate after 60 mins by spectrofluorometric analysis
[11] = Inhibition of gamma-secretase in chicken primary telencephalon neuron cells expressing APP assessed as inhibition of amyloid beta-40 production by electrochemiluminescence assay; conditions: Gallus gallus
[12] = target: T1, Acetylcholinesterase; experiment: Inhibition of human recombinant AChE-induced amyloid beta 40 aggregation assessed as fibril formation at 100 uM after 24 hrs by thioflavin T-based fluorometric assay
[13] = Inhibition of gamma-secretase in chicken primary telencephalon neuron cells expressing APP assessed as inhibition of amyloid beta-42 production by electrochemiluminescence assay; conditions: Gallus gallus
[14] = Inhibition of gamma-secretase in chicken primary telencephalon neuron cells expressing APP assessed as inhibition of amyloid beta-38 production by electrochemiluminescence assay; conditions: Gallus gallus

Chain of Cholinesterase (P06276 whole entry): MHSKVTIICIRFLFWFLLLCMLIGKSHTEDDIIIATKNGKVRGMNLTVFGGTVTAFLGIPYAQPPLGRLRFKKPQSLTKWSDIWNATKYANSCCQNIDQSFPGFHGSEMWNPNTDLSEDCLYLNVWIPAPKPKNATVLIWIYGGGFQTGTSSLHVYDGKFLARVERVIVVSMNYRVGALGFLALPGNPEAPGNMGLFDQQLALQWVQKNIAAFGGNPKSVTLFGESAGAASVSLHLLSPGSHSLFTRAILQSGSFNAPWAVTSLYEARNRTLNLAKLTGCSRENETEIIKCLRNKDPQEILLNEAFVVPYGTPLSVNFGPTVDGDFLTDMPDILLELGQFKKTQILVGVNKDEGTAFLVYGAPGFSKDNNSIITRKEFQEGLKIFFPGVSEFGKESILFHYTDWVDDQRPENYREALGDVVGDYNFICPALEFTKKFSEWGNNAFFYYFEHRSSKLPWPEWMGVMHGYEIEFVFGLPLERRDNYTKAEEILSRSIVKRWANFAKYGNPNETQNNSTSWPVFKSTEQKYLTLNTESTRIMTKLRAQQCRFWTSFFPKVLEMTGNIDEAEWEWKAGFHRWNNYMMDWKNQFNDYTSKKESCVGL
T1 sequence (P22303 whole entry): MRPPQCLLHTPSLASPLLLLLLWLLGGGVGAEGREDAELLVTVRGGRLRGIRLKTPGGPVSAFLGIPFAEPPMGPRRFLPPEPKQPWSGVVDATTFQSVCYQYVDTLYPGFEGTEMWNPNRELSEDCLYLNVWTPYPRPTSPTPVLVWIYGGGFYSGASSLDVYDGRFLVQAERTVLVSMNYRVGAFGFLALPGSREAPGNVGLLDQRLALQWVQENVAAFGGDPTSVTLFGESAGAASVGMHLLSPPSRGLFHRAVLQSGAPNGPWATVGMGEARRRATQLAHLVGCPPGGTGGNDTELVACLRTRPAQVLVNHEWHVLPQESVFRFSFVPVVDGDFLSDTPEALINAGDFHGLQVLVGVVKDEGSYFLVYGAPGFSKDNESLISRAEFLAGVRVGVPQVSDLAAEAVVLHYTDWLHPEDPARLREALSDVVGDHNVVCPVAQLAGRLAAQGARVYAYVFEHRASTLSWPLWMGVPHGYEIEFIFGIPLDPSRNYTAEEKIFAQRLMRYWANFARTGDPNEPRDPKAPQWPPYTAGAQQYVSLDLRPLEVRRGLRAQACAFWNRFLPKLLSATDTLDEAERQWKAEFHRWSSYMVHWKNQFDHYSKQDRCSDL
T2 sequence (P56817 whole entry): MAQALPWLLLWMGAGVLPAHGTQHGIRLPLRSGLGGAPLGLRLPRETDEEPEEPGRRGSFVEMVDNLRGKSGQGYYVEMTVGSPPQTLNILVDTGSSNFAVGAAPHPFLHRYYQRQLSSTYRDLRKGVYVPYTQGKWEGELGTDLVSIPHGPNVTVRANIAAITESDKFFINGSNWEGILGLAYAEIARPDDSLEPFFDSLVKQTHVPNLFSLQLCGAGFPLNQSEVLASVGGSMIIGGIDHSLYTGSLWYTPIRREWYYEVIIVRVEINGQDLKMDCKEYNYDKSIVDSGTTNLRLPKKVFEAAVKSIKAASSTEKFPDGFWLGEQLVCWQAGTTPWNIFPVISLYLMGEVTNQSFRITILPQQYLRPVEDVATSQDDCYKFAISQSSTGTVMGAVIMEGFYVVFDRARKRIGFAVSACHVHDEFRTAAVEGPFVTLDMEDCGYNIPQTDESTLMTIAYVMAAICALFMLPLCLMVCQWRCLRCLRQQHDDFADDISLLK

COc1ccccc1CN1CCC(N2CCC(NC3=CC(=O)c4ccccc4C3=O)CC2)CC1
IC50 [1]: 17.2 µM | IC50 [2]: 3.16 µM | inhibition [3]: 21.4% | inhibition [4]: inactive

CCN(CCCCCCNC1=CC(=O)C(OC)=CC1=O)Cc1ccccc1OC
IC50 [1]: 0.0653 µM | IC50 [2]: 22.8 µM | Activity [5]: Toxic | inhibition [3]: 45.7% | inhibition [4]: 32.8%

CCN(CCCCCCNC1=CC(=O)C(NCCCCCCN(CC)Cc2ccccc2OC)=CC1=O)Cc1ccccc1OC [MEMOQUIN]
IC50 [6]: 4.6 µM | IC50 [2]: 0.144 µM | Activity [7]: Toxic | inhibition [3]: 66.8% | inhibition [4]: > 80%

CCN(CCCCCCNC1=CC(=O)c2ccccc2C1=O)Cc1ccccc1OC
IC50 [8]: 45 µM | Activity [9]: Non-toxic | IC50 [10]: 2.8 µM | IC50 [11]: 21 µM | IC50 [1]: 0.00973 µM | inhibition [12]: 69.1% | IC50 [6]: 3 µM | IC50 [13]: 46 µM | IC50 [2]: 1.49 µM | inhibition [3]: 27.3% | inhibition [4]: 60.2% | IC50 [14]: 19 µM

NCCCCCCNC1=CC(=O)c2ccccc2C1=O
IC50 [1]: 64.5 µM | IC50 [2]: 294 µM | inhibition [3]: 13.8% | inhibition [4]: inactive

CCN(CCCCCCNC1=CC(=O)c2ncccc2C1=O)Cc1ccccc1OC
IC50 [1]: 0.0279 µM | inhibition [12]: 41.3% | IC50 [2]: 2.56 µM | inhibition [3]: 15.4% | inhibition [4]: inactive

COC1=CC(=O)C(N2CCC(C3CCN(Cc4ccccc4OC)CC3)CC2)=CC1=O
IC50 [1]: 24.4 µM | IC50 [2]: 3.58 µM | Activity [7]: Toxic | inhibition [3]: 20.5% | inhibition [4]: 32.9%

COc1ccccc1CNCCCCCCNC1=CC(=O)c2ccccc2C1=O
IC50 [1]: 1.85 µM | IC50 [2]: 3.32 µM | inhibition [3]: 29.5% | inhibition [4]: inactive

CCN(CCCCCCNC1=CC(=O)C(C)=C(C)C1=O)Cc1ccccc1OC
IC50 [1]: 0.029 µM | inhibition [12]: 60.6% | IC50 [2]: 0.314 µM | inhibition [3]: 30.2% | inhibition [4]: 12.8%
